Patent publication US11013235B2 (priority 2015, dated 2021)
Read-outs that look alike come from different tables or passages of the source.

Experiments:
Assay type in all cases: in vivo
[1] = system: Botrytis cinerea; test: Control of Botrytis cinerea disease in tobacco (Bc-Nt); conditions: 1 μM spraying every 24 hours for one week, water control 6.7
Method: (§1) In order to compare the effect of the compounds of formula I to V on the control of diseases in different plants, experiments were conducted in tobacco, tomato and Arabidopsis thaliana plants inoculated with Phytophthora parasitica, Rhizoctonia solani, Alternaria solani, Nocardia sp and Botrytis cinerea, respectively. The compounds were applied by spraying, at a concentration of 1 μM, every 24 hours for one week. The plant mortality rate was determined for the disease produced by Phytophthora parasitica, Rhizoctonia solani and Nocardia sp, while the percentage of leaves with symptoms was determined for the infection by Alternaria solani. In the case of plants affected by Botrytis cinerea, the lesion diameter was measured. […] Each treatment included fifty plants. As control, plants treated with water were studied. The plants of each treatment were previously inoculated with the indicated pathogens, according to different inoculation protocols (Frontiers in Plant Science 3: 268, 1-6, 2012), and later they were treated with the compounds.

[2] = system: Alternaria solani; test: Control of Alternaria solani disease in tomato (As-SI); conditions: 1 μM spraying every 24 hours for one week, water control 68
Method: as §1

[3] = system: Rhizoctonia solani; test: Control of Rhizoctonia solani disease in tomato (Rs-SI); conditions: 1 μM spraying every 24 hours for one week, water control 96
Method: as §1

[4] = system: Meloidogyne incognita; test: Nematode control, nodules per plant: Meloidogyne incognita; conditions: 1 μM foliar application every 5 days, evaluation 35 days after, control 34
Method: (§2) The solutions of the compounds were prepared in ethanol and diluted in water, up to a concentration of 1 μM for a foliar application. Applications were conducted every 5 days, spraying only the leafs with each compound. Ten plants were used for each treatment and the final evaluation was performed 35 days after, by quantifying the number of nodules per plant.

[5] = system: Pratylenchus coffeae; test: Nematode control, nodules per plant: Pratylenchus coffeae; conditions: 1 μM foliar application every 5 days, evaluation 35 days after, control 42
Method: as §2

[6] = system: Phytophthora parasitica; test: Control of Phytophthora parasitica disease in tobacco (Pp-Nt); conditions: 1 μM spraying every 24 hours for one week, water control 91
Method: as §1

[7] = system: Nocardia sp; test: Control of Nocardia sp disease in tobacco (N-Nt); conditions: 1 μM spraying every 24 hours for one week, water control 58
Method: as §1

[8] = system: Candidatus 'Liberibacter asiaticus'; conditions: spraying every 15 days, 12 months after treatment, Citrus sinensis with HLB
[9] = system: Rhizoctonia solani; test: Control of Rhizoctonia solani disease in tobacco (Rs-Nt); conditions: 1 μM spraying every 24 hours for one week, water control 87
Method: as §1

[10] = system: Botrytis cinerea; test: Control of Botrytis cinerea disease in Arabidopsis (Bc-At); conditions: 1 μM spraying every 24 hours for one week, water control 8.7
Method: as §1

[11] = system: Radopholus similis; test: Nematode control, nodules per plant: Radopholus similis; conditions: 1 μM foliar application every 5 days, evaluation 35 days after, control 45
Method: as §2

[12] = system: Botrytis cinerea; test: Control of Botrytis cinerea disease in tomato (Bc-SI); conditions: 1 μM spraying every 24 hours for one week, water control 7.4
Method: as §1

| SMILES | Bc-Nt: mean of the diameter of the lesion [1] | As-SI: percentage of leaves with the disease symptoms [2] | Rs-SI: percentage of mortality [3] | Mi: number of nodules per plant [4] | Pc: number of nodules per plant [5] | Pp-Nt: percentage of mortality [6] | N-Nt: percentage of mortality [7] | Titers of the bacterium ([8]; 0.001 μM) | Titers of the bacterium ([8]; 0.01 μM) | Titers of the bacterium ([8]; 1 μM) | Titers of the bacterium ([8]; 5 μM) | Titers of the bacterium ([8]; 10 μM) | Rs-Nt: percentage of mortality [9] | Bc-At: mean of the diameter of the lesion [10] | Rs: number of nodules per plant [11] | Bc-SI: mean of the diameter of the lesion [12] |
| --- | --- | --- | --- | --- | --- | --- | --- | --- | --- | --- | --- | --- | --- | --- | --- | --- |
| Cc1nc(N2CCN(C)CC2)ncc1C(=O)N1CC2CC(O)C(O)CC2C1 (centres unmarked) [IIIB, 2-{[4-methyl-2-(4-methylpiperazin-1-yl)pyrimidin-5-yl]carbonyl}-octahydro-1H-isoindole-5,6-diol] | 0.9 mm | 2% | 2% | 3 | 16 | 2% | 1% | 123 copies per reaction | 0 copies per reaction | 0 copies per reaction | 23 copies per reaction | 8546 copies per reaction | 3% | 0.7 mm | 2 | 1.2 mm |
| O=C(Cc1cc2c(oc1=O)C=CC1C=COC21)NCC(O)CO (centres unmarked) [IIF, N-(2,3-dihydroxypropyl)-2-{11-oxo-3,10-dioxatricyclo[7.4.0.0^{2,6}]trideca-1(9),4,7,12-tetraen-12-yl}acetamide] | 2.0 mm | 5% | 1% | 0 | 0 | 0% | 0% | 657 copies per reaction | 9 copies per reaction | 0 copies per reaction | 67 copies per reaction | 6547 copies per reaction | 0% | 1.1 mm | 0 | 1.6 mm |
| O=C(Cc1cc2c(oc1=O)C=CC1C(C3CCCC3)=COC21)NCC(O)CO (centres unmarked) [IID, 2-{5-cyclopentyl-11-oxo-3,10-dioxatricyclo[7.4.0.0^{2,6}]trideca-1(9),4,7,12-tetraen-12-yl}-N-(2,3-dihydroxypropyl)acetamide] | 0.9 mm | 8% | 2% | 0 | 17 | 0% | 1% | 587 copies per reaction | 12 copies per reaction | 2 copies per reaction | 87 copies per reaction | 1351 copies per reaction | 0% | 0.7 mm | 0 | 1.2 mm |
| O=C(CC1COc2ccc(C(=O)NC3CCCCC3)cc2N1)NC(CO)CO (centres unmarked) [VE, N-cyclohexyl-3-{[(1,3-dihydroxypropan-2-yl)carbamoyl]methyl}-3,4-dihydro-2H-1,4-benzoxazine-6-carboxamide] | 0.9 mm | 7% | 1% | 0 | 0 | 3% | 0% | 587 copies per reaction | 0 copies per reaction | 0 copies per reaction | 87 copies per reaction | 4587 copies per reaction | 0% | 0.5 mm | 3 | 0.8 mm |
| CC1=COC2c3cc(CC(=O)NCC(O)CO)c(=O)oc3C=CC12 (centres unmarked) [IIA, N-(2,3-dihydroxypropyl)-2-{5-methyl-11-oxo-3,10-dioxatricyclo[7.4.0.0^{2,6}]trideca-1(9),4,7,12-tetraen-12-yl}acetamide] | 0.9 mm | 1% | 3% | 2 | 14 | 1% | 1% | 598 copies per reaction | 14 copies per reaction | 0 copies per reaction | 98 copies per reaction | 9845 copies per reaction | 2% | 0.5 mm | 17 | 0.8 mm |
| O=C(Cc1cc2c(oc1=O)C=CC1C(C3CCCCC3)=COC21)NCC(O)CO (centres unmarked) [IIC, 2-{5-cyclohexyl-11-oxo-3,10-dioxatricyclo[7.4.0.0^{2,6}]trideca-1(9),4,7,12-tetraen-12-yl}-N-(2,3-dihydroxypropyl)acetamide] | 1.5 mm | 3% | 2% | 4 | 2 | 1% | 2% | 123 copies per reaction | 25 copies per reaction | 2 copies per reaction | 23 copies per reaction | 4562 copies per reaction | 4% | 2.4 mm | 18 | 0.8 mm |
| O=C(CCc1cc2cc3c(-n4cccc4)coc3cc2oc1=O)NCC(O)CO (centres unmarked) [IG, N-(2,3-dihydroxypropyl)-3-[2-oxo-6-(1H-pyrrol-1-yl)-2H-furo[3,2-g]chromen-3-yl]propanamide] | 0.3 mm | 7% | 1% | 0 | 0 | 3% | 0% | 657 copies per reaction | 11 copies per reaction | 1 copies per reaction | 65 copies per reaction | 5423 copies per reaction | 0% | 1.2 mm | 31 | 0.8 mm |
| Cc1c(CCC(=O)NCC(O)CO)c(=O)oc2cc3occ(-c4ccccc4)c3cc12 (centres unmarked) [II, N-(2,3-dihydroxypropyl)-3-{4-methyl-2-oxo-6-phenyl-2H-furo[3,2-g]chromen-3-yl}propanamide] | 0.9 mm | 2% | 2% | 3 | 13 | 2% | 1% | 756 copies per reaction | 14 copies per reaction | 14 copies per reaction | 76 copies per reaction | 8420 copies per reaction | 3% | 0.5 mm | 2 | 0.8 mm |
